Legend:
[1] = biological target: T1, Oxysterols receptor LXR-beta (Homo sapiens) (UniProt P55055)
T1 sequence (whole entry): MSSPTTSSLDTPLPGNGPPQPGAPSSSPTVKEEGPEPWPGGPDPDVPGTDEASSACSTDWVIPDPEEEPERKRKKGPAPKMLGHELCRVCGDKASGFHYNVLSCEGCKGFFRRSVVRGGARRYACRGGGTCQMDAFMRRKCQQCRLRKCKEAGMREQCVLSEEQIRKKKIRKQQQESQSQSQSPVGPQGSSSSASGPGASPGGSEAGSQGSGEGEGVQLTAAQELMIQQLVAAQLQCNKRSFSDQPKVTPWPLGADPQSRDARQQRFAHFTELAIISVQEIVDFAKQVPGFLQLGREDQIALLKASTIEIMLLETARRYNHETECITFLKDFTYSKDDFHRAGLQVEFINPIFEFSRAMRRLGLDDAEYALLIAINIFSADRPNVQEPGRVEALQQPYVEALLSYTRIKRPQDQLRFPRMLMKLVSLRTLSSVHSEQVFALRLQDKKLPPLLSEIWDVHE
Description: TA max fold induction against LXR beta

[2] = biological target: T2, Oxysterols receptor LXR-alpha (Homo sapiens) (UniProt Q13133)
T2 sequence (whole entry): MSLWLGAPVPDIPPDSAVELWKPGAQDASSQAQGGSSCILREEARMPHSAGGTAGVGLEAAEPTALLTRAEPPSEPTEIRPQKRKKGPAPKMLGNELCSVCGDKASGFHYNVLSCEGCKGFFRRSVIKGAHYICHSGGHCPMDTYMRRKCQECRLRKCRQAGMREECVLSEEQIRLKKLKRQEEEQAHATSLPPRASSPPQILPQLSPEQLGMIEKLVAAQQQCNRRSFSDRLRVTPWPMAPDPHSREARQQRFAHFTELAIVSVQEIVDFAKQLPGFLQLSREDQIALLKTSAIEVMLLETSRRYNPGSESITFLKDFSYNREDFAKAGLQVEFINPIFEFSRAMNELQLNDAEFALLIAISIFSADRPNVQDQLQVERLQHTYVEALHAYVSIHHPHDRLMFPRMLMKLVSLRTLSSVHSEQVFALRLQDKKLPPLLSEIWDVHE
Description: TA max fold induction against LXR alpha

[3] = biological target: T3, Oxysterols receptor LXR-beta (Homo sapiens, UniProt P55055); test: Effective concentration in recombinant human LXRbeta ligand binding domain in homogeneous time-resolved fluorescence assay
T3 sequence (P55055 whole entry): T1 sequence (whole entry)

[4] = biological target: T4, Oxysterols receptor LXR-alpha (Homo sapiens, UniProt Q13133); test: Effective concentration in recombinant human LXRalpha ligand binding domain in homogeneous time-resolved fluorescence assay
T4 sequence (Q13133 whole entry): T2 sequence (whole entry)

[5] = biological target: T3, Oxysterols receptor LXR-beta; test: Inhibitory concentration in LXRSPA beta binding assay
[6] = biological target: T4, Oxysterols receptor LXR-alpha; test: Inhibitory concentration in LXRSPA alpha binding assay

Row | Compound | Induction [1] | Induction [2] | EC50 [3] | EC50 [4] | IC50 [5] | IC50 [6]
1 | CC(=O)Oc1ccc2c(c1)[C@@]1(C)CCCC(C)(C(=O)OC(=O)[C@@]3(C)CCC[C@]4(C)c5cc(OC(C)=O)ccc5CC[C@@H]34)[C@@H]1CC2 (stereo partly specified) | 54 | 60 | – | – | – | –
2 | C=CCOC(=O)[C@@]1(C)CCC[C@]2(C)c3cc(O)ccc3CC[C@@H]12 | – | – | > 50 µM | > 50 µM | > 15 µM | > 15 µM

Source: ChEMBL document CHEMBL1142856, “Design, synthesis, and structure-activity relationship of podocarpic acid amides as liver X receptor agonists for potential treatment of atherosclerosis” (Bioorg Med Chem Lett, 2005)
